Source: US10898548B2, “Modulators of protein tyrosine phosphatase and uses thereof” (LEUVAS THERAPEUTICS, priority 2015, dated 2021)
Read-outs that look alike come from different tables or passages of the source. Marks after values point to notes of the source that are not given here.

Tests used:
[1] = system: Hbb^th3/+ mice (β-thalassemia model); experiment: circulating erythroblasts; type: in vivo, mouse; details: TAT-ICD 5 mg/kg i.p once every other day for 3 weeks
[2] = system: Hbb^th3/+ mice (β-thalassemia model)
[3] = system: Hbb^th3/+ mice (β-thalassemia model); experiment: reactive oxygen species (ROS) levels, CM-H2DCFDA; type: in vivo, mouse; details: for mean ROS level in red cells: TAT-ICD 5 mg/kg i.p once every other day for 3 weeks
Protocol: Reactive oxygen species (ROS) are known to be increased in red blood cells in β-thalassemia and are thought to be important in the pathophysiology of the disease, leading to cumulative cell damage. The reactive oxygen species (ROS) levels from erythroid precursor populations was assessed using the General Oxidative Stress Indicator CM-H2DCFDA (Life Technologies, Carlsbad, Calif.) as described (Matte A. et al 2015 Antioxid. Redox Signal 23(16):1284-1297). […] Data are the mean ROS level.

[4] = system: Hbb^th3/+ mice (β-thalassemia model); experiment: extramedullary erythropoiesis in spleen; type: in vivo, mouse; details: treated mice, 3 weeks
Protocol: Wild-type C57BL/6J mice and the mouse model for β-thalassemia (designated as Hbb^th3/+) were used for these studies. Flow cytometric analysis and sorting of mouse bone marrow and spleen precursors were performed using standard protocols using markers for CD44 and TER119 and cell size (forward scatter) to distinguish erythroid precursors at each distinct developmental stage. Forward scatter high-CD44+Ter119+ cells represents total erythroblasts (or erythroid mass in bone marrow or spleen). These erythroblasts can be further analyzed and sorted in subpopulations: population I: pro-erythroblasts; population II: basophilic erythroblasts; population III: polychromatic erythroblasts; population IV: orthochromatic erythroblasts, as described in Matte et al 2015, Antioxid. Redox Signal. 2015 23(16):1284-1297. Population II, III and IV corresponding to basophilic erythroblasts, polychromatic erythroblasts and orthochromatic erythroblasts were sorted from bone marrow as previously described (Matte et al 2015 Antioxid. Redox Signal. 2015 23(16):1284-1297).

[5] = body weight as a measure of toxicity; type: in vivo, mouse; details: Wild-type and Hbb^3th/+ mice; 5 mg/kg i.p once every other day for 3 weeks
Protocol: Wild-type and Hbb^3th/+ were treated with TAT-ICD at 5 mg/kg i.p once every other day for 3 weeks. […] Hematological parameters, red blood cell indices and reticulocyte counts were determined using standard procedures. Table 37 summarizes the effect of treatment of WT and HBB mice with TAT-ICD9 on key hematological parameters and red cell indices.

[6] = system: Hbb^th3/+ mice (β-thalassemia model); experiment: apoptosis of bone marrow orthochromatic erythroblasts (Annexin-V PE); type: in vivo, mouse; details: ICD-Treated, 3 weeks
Protocol: One of the hallmarks of β-thalassemia is increased apoptosis of late-stage erythroblasts. Apoptosis of population IV (orthochromatic erythroblasts) was assessed using standard protocols using the Annexin-V PE apoptosis kit following manufacturer instructions. Data are the mean percent of apoptotic cells (Table 42).

In the case of “TAT-ICD: fusion recombinant protein SEQ ID 5: PTPRG intracellular domain aa 797-1445 fused to 13 aa TAT sequence”, the circulating erythroblasts ([1]; Hbb^th3/+ mice, Vehicle-treated 32.0) is reported as 10.8*, the circulating erythroblasts ([1]; Wild-type mice, Vehicle-treated 0) is reported as 0 and the red cell morphology ([2]; Hbb^th3/+ mice) is reported as “ameliorated red cell morphological abnormalities”. The red cell morphology ([2]; mouse, in vivo) was “without any changes”, the “ROS levels in bone marrow erythroid precursor populations I-IV” value ([3]; Hbb mice, all four populations) was “decreased” and the “mean ROS level in red cells” value ([3]; Hbb^th3/+ mice, Untreated 13.75) was 9.73*. For the same substance, the “mean ROS level in red cells” value ([3]; Wild-type mice, Untreated 3.32) was 2.79, the “extramedullar erythropoiesis in spleen” value [4] was “trend to reduction” and the “body weight as a measure of toxicity” value [5] was “no changes were observed”. The “mean percent of apoptotic cells, bone marrow orthochromatic erythroblasts (population IV)” value ([6]; Hbb^th3/+ mice) was 5.75* percent and the “mean percent of apoptotic cells, bone marrow orthochromatic erythroblasts (population IV)” value ([6]; Wild-type mice) was 4.20%.
